Paper PMC7096397, “Improving the drug-likeness of inspiring natural products - evaluation of the antiparasitic activity against Trypanosoma cruzi through semi-synthetic and simplified analogues of licarin A” (Scientific Reports, 2020)
Entries after “also recorded” stand apart in the source; their conditions may differ.

How the values were obtained:
PAMPA-BBB model = format: in vitro ADME
Description: The methodology herein applied was similar to that described in the previous section, however with the purpose of assessing the permeability of the compounds through the blood brain barrier (BBB). Thus, stock solutions (10 mM) of each test compound were prepared in DMSO and diluted with phosphate buffered saline (PBS) at pH 7.4. The final concentration of donor solutions was 300 μM and DMSO of 5%. Artificial membrane lipid solutions were prepared daily by dissolving, in n-dodecane, the porcine brain lipid extracted as described[40] at the final concentration of 2% (m/v). PAMPA procedure was similar to that described in the previous section although, in PAMPA-BBB, the donor and acceptor solutions were prepared using phosphate buffer saline (PBS) at pH 7.4 and the Papp was obtained through the equation previously reported.

T. cruzi trypomastigotes [1] = assay: Reactive oxygen species (ROS) generation, H2DCFDA probe; format: cell-based, Trypanosoma cruzi; details: for ROS generation: at IC50, 1 h of treatment; for ROS levels: at IC50, 2 h of treatment
Description: After, H2DCFDA probe (Molecular Probes) was added (5 µM) and incubated by 15 min[44]. The fluorescence intensity was measure using a fluorimetric microplate reader (FilterMax F5 Multi-Mode, Molecular Devices) with excitation and emission wavelengths of 485 and 520 nm, respectively. Azide (10 mM) was used as positive control and untreated parasites were used as negative control.

[2] = tested on: T. cruzi intracellular amastigotes; assay: Anti-amastigote assay in infected peritoneal macrophages (infection index); format: cell-based, Trypanosoma cruzi; details: Trypanosoma cruzi, Peritoneal macrophage, in Mus musculus; intracellular amastigotes in BALB/c peritoneal macrophages, 48 h; read-out: IC50 Ama
Description: (§1) The cells and parasites were kept at 37 °C in a humidified atmosphere containing 5% CO2.
The cells were plated on a 16-well chamber slide – NUNC (Thermo Fisher Scientific) at 1 × 10^5 cells/well and incubated for 24 h at 37 °C in a 5% CO2 humidified incubator. […] Tested compounds were subsequently incubated with infected macrophages for 48 h at 37 °C (5% CO2 humidified incubator) in different nontoxic concentrations. Benznidazole was used as standard drug. At the end of the assay, slides were fixed with MeOH and stained with Giemsa, counted under a light microscope (EVOS M5000, Thermo, USA) and IC50 values were determined by the infection index.
(§2) IC50 and CC50 values were calculated using a sigmoid dose-response curves in Graph–Pad Prism 5.0 software (GraphPad Software - San Diego, CA, USA). For the mechanism of action studies one-way ANOVA (Turkey’s Multiple Comparison test) was used for significance (p < 0.05). The assays were repeated at least twice and the samples were tested in duplicate.

T. cruzi trypomastigotes [3] = assay: Mitochondrial membrane potential, JC-1 flow cytometry; format: cell-based, Trypanosoma cruzi; details: at IC50, 2 h
Description: The ΔΨm were analyzed by flow cytometry (Attune NxT flow cytometer - ThermoFisher) with the probe 5,5′,6,6′-tetrachloro-1,1′,3,3′-tetraethylbenzimidazole carbocyanide iodide (JC-1, ThermoFisher). The ratio between red/green fluorescence intensities (BL-2/BL-1; 590 nm/530 nm) were calculated[45],[46]. […] The parasites were incubated in the dark for 10 min at 37 °C and washed in HBSS + Glu to eliminate the non-internalized dye. As internal controls of the assay were used: (i) non-treated cells and (ii) trypomastigotes treated with 100 μM CCCP.

T. cruzi trypomastigotes [4] = assay: ATP generation (luciferin/luciferase); format: cell-based, Trypanosoma cruzi; details: at IC50, 2 h of incubation
Description: Untreated parasites and treated with the mitochondrial uncoupler CCCP (carbonyl cyanide m-chlorophenylhydrazone - Sigma) at 100 µM, were used as positive and negative controls, respectively. […] Luminescence intensity was measured using a luminometer (FilterMax F5 Multi-Mode, Molecular Devices) and the amount of ATP was calculated from an ATP standard curve.

[5] = PAMPA intestinal model (GIT); format: in vitro ADME
Description: Intestinal permeability of tested compounds was estimated applying the PAMPA model previously developed and validated. Briefly, stock solutions were prepared in dimethyl sulfoxide (DMSO) at the concentrations of 10 mM and then diluted with Tris buffer to give the final concentration donor solution at 300 µM and 5% DMSO. The assay procedure was initiated by filling each well of the microtiter plate (MultiScreen, catalogue no. MATRNPS50, Millipore Corporation, Bedford, MA, USA) with 300 μL of each donor drug solution. Carefully, and avoiding the pipette tip contact with the filter, the hydrophobic filter (0.45 μm) of each acceptor well of the 96-well microfilter plate (MultiScreen-IP, catalogue no. MAIPNTR10, Millipore Corporation, Bedford, MA, USA) was adsorbed with 6 μL of the artificial lipid solution which was composed of 2% of L-α-phosphatidylcholine from soybean dissolved, by sonication, in n-dodecane. Immediately after this application, 150 μL of Tris buffer containing 5% DMSO was added to the receiving well. The receiving well was mounted on the donor plate, keeping the underside of the membrane in contact with the donor solution. The assembled donor–acceptor plates were incubated under constant stirring (3 g) at 25 °C for approximately 16 h. Subsequently, the quantity of each compound presented at the receptor solution (150 μL) was determined by UV/VIS spectrophotometrically.

[6] = Cytotoxicity against mammalian cells (MTT); format: cell-based, Murine; details: mouse, NCTC clone L929 cells
Description: Rhesus monkey kidney cells (LLC-MK2-ATCC CCL 7) were used for the maintenance of trypomastigotes of T. cruzi (Y strain) using RPMI-1640 medium supplemented with 2% fetal bovine serum (FBS). The cells and parasites were kept at 37 °C in a humidified atmosphere containing 5% CO2. Peritoneal macrophages, used in the experiments of anti-amastigote assay, were obtained by washing the peritoneal cavity of BALB/c mice, with RPMI-1640 medium supplemented with 10% FBS and kept at 37 °C in a 5% CO2 humidified incubator. Murine conjunctive cells (NCTC clone 929, ATCC) and LLC-MK2 were kept in RPMI-1640 supplemented with 10% FBS at the same conditions described above.
NCTC cells-clone L929 (6 × 10^4 cells/well) were seeded and incubated with tested compounds (200–1.56 µM) for 48 h at 37 °C in a 5% CO2 humidified incubator. Cytotoxic concentration (CC50) was determined by MTT assay. Optical density was determined in FilterMax F5 (Molecular Devices) at 570 nm. Selectivity Index (SI) was determined using the following ratio: CC50 against NCTC cells/IC50 against parasites.
as §2

[7] = tested on: T. cruzi (Y strain) trypomastigotes; assay: Anti-trypomastigote assay (resazurin viability); format: cell-based, Trypanosoma cruzi; details: Trypanosoma cruzi; T. cruzi trypomastigotes, 24 h incubation, resazurin; read-out: IC50 trypo
Description: as §1
Benznidazole was used as the standard drug. The optical density was determined in FilterMax F5 (Molecular Devices) at 570 nm[38].
as §2

T. cruzi trypomastigotes [8] = assay: Plasma membrane permeability, Sytox Green probe; format: cell-based, Trypanosoma cruzi; details: at IC50, up to 120 min, vs untreated parasites
Description: The action of compounds 1d, 1e, 3d and 4a in the cell membrane permeability were evaluated in T. cruzi trypomastigotes (2 × 10^6/well) seeded in 96-well black polystyrene microplates. Parasites were washed and incubated in the dark with 1 μM SYTOX Green probe (Molecular Probes) in HANKS’ balanced salts solution (HBSS; Sigma-Aldrich) supplemented with 10 mM D-Glucose (HBSS + Glu) in 96-well black polystyrene microplates[43],[44]. […] The maximum permeabilization was obtained with the addiction of 0.5% Triton X-100. Fluorescence intensities were determined using a fluorimetric microplate reader (FilterMax F5 Multi-Mode Microplate Reader-Molecular Devices) with excitation and emission wavelengths of 485 and 520 nm, respectively. The following internal controls were used in the evaluation: i) the background fluorescence of the compound at the respective wavelengths, ii) the possible interference of DMSO.

SMILES | Papp at 16 h, 300 µM (PAMPA-BBB model; PAMPA, pH 7.4) | ROS generation (T. cruzi trypomastigotes [1]) | ROS levels (T. cruzi trypomastigotes [1]) | IC50 [2] | mitochondrial membrane potential (T. cruzi trypomastigotes [3]) | ATP levels (T. cruzi trypomastigotes [4]) | Papp at 16 h, 300 µM ([5]; PAMPA) | CC50 at 48 h [6] | IC50 [7] | Sytox Green fluorescence levels (plasma membrane permeability) (T. cruzi trypomastigotes [8]) | Papp at 16 h, 300 µM (PAMPA-BBB model; PAMPA-BBB model, 300 µM donor, PBS pH 7.4, read-out: Papp BBB) | Papp at 16 h, 300 µM ([5]; PAMPA intestinal model, 300 µM donor, Tris buffer, 25 °C, 16 h, read-out: Papp GIT)
C=CCc1cc([C@H]2Oc3c(OC)cc(/C=C/C)cc3[C@@H]2C)cc(OC)c1O [1d, 2-allyl-6-methoxy-4-[(2S,3 S)-7-methoxy-3-methyl-5-[(E)-prop-1-enyl]-2,3-dihydrobenzofuran-2-yl]phenol] | 0.28 ×10⁻⁶ cm/s | increased the reactive oxygen species (ROS) levels; also recorded: increased ROS generation | drop of the levels | > 100 µM | induced hyperpolarization of mitochondrial membrane potential; also recorded: mitochondrial hyperpolarization, but with no statistical significance | increased ATP production | 0.38 ×10⁻⁶ cm/s | 45.5 ± 16.7 µM | 5 ± 0.8 µM | no changes in the fluorescence levels | – | –
C/C=C/c1cc(OC)c2c(c1)[C@H](C)[C@@H](c1cc(OC)c3oc(C)cc3c1)O2 [1e, 7-methoxy-5-[(2 S,3 S)-7-methoxy-3-methyl-5-[(E)-prop-1-enyl]-2,3-dihydrobenzofuran-2-yl]-2-methyl-benzofuran] | 0.23 ×10⁻⁶ cm/s | increased the reactive oxygen species (ROS) levels; also recorded: increased ROS generation | drop of the levels | > 100 µM | induced hyperpolarization of mitochondrial membrane potential; also recorded: mitochondrial hyperpolarization, but with no statistical significance | no significant alterations in ATP levels | 0.55 ×10⁻⁶ cm/s | > 200 µM | 10.5 ± 5.7 µM | exception of 1e after 120 min | – | –
COc1cc(CO)ccc1OC(C)=O [3b, [4-(hydroxymethyl)-2-methoxy-phenyl] acetate] | 3.67 ×10⁻⁶ cm/s | increased ROS generation | drop of the levels | > 100 µM | mitochondrial hyperpolarization, but with no statistical significance | increased ATP production | 5.07 ×10⁻⁶ cm/s | 45.8 ± 14.9 µM | 5.1 ± 0.7 µM | no changes in the fluorescence levels | – | –
C=CCc1cc(CO)cc(OC)c1O [3d, 2-allyl-4-(hydroxymethyl)-6-methoxy-phenol] | 3.47 ×10⁻⁶ cm/s | increased the reactive oxygen species (ROS) levels | – | > 100 µM | induced hyperpolarization of mitochondrial membrane potential | – | 3.47 ×10⁻⁶ cm/s | > 200 µM | > 100 µM | – | – | –
C=CCOc1ccc(CC=C)cc1OC [5c, 4-allyl-1-allyloxy-2-methoxy-benzene] | 0.32 ×10⁻⁶ cm/s | – | – | > 100 µM | – | – | 1.21 ×10⁻⁶ cm/s | > 200 µM | > 100 µM | – | – | –
C=CCc1cc(CC=C)c(O)c(OC)c1 [5d, 2,4-diallyl-6-methoxy-phenol] | 0.32 ×10⁻⁶ cm/s | – | – | > 100 µM | – | – | 0.65 ×10⁻⁶ cm/s | > 200 µM | > 100 µM | – | – | –
C/C=C/c1cc(OC)c2c(c1)[C@H](C)[C@@H](c1ccc(O)c(OC)c1)O2 [compound 1, Licarin A] | 2.37 ×10⁻⁶ cm/s | – | – | > 100 µM | – | – | 0.85 ×10⁻⁶ cm/s | > 200 µM | 54.3 ± 8.9 µM | – | – | –
COc1cc(C=O)ccc1O [compound 2, vanillin] | – | – | – | 5.5 ± 0.6 µM | – | – | – | > 200 µM | > 100 µM | – | 6.15 ×10⁻⁶ cm/s | 1.41 ×10⁻⁶ cm/s
COc1cc(CO)ccc1O [compound 3, vanillyl alcohol] | 0.64 ×10⁻⁶ cm/s | – | – | > 100 µM | – | – | 0.18 ×10⁻⁶ cm/s | > 200 µM | > 100 µM | – | – | –
